Source: patent US10335382B2, “Use of hydrogen sulfide synthesis inhibitors for cancer therapy” (THE BOARD OF REGENTS OF THE UNIVERSITY OF TEXAS SYSTEM, priority 2013, dated 2019)

Experiments:
CBS = molecular target: T1, CBS (Homo sapiens, UniProt P35520); test: H2S production in colon cancer tissue extracts (methylene blue method); type: biochemical; parameters: from tissue; host or cells: human colorectal tumor tissue and patient-matched normal mucosa homogenates; conditions: AOAA 1 mM; L-cysteine 3 mM, L-homocysteine 0.5 mM, 37° C., 30 min
T1 sequence (P35520 1-551): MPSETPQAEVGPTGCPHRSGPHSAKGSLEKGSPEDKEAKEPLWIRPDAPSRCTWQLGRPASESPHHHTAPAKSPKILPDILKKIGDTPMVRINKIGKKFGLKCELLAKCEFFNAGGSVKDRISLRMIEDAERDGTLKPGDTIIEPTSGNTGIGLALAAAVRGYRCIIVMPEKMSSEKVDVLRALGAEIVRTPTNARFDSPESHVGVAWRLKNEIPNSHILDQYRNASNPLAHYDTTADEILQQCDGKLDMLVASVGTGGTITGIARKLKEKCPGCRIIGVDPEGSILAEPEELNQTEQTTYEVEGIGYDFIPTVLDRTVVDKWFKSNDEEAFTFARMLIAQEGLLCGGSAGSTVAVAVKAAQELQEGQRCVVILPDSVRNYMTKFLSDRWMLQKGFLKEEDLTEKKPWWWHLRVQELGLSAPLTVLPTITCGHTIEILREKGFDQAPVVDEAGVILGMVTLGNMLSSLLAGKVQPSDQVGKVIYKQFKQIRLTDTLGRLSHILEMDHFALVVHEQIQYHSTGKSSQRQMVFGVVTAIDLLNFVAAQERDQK
Excerpt: FIG. 1. CBS is overexpressed in human colorectal cancer. (A) Representative Western blot of CBS, CSE and 3-MST protein expression in human colorectal cancer specimens, paired with the corresponding normal mucosa tissues. PVDF membranes were probed with rabbit polyclonal antibodies against CBS, CSE and 3-MST. […] (C, D) CBS was highly expressed in three different colon cancer cell lines (LoVo, HCT116 and HT29); low expression was detected in the non-tumorigenic normal colon mucosa cells (NCM356) (arbitrary relative densitometric units were normalized with β-actin using image analysis software) (*p<0.05 vs NCM356 cells) (E) or in colon cancer cell lines (F) by the methylene blue method. H2S production was stimulated in tissue or cell lysates by incubation at 37° C. (30 min) in presence of the CBS substrates L-cysteine (3 mM) and L-homocysteine (0.5 mM). […] Western blots show representatives of at least n=3 experiments; H2S measurements represent mean±SEM of at least n=3 determinations.
H2S production can be measured in a tissue homogenate by using a methylene blue assay. Briefly, 1% zinc acetate is added to a tissue homogenate to trap H2S followed by 10% trichloroacetic acid to precipitate proteins. […] The absorbance of the resulting solution is measured at 655 nm. H2S content is calculated against a calibration curve of standard H2S solutions. […]

[1] = test system: patient-derived colon cancer xenografts; test: Patient-derived tumor xenograft (PDTX) growth; type: in vivo, nu/nu mice; conditions: AOAA 9 mg/kg/day s.c.
Experimental: (§1) Nu/nu Balb/C female mice (8-10 weeks) were injected subcutaneously in the right and left dorsum (10^6 cells/side with HCT-116 cells). One week later, the mice were randomized and subcutaneous injections of phosphate buffered saline (PBS) or AOAA (9 mg/kg/day) were performed 6 days/week. Tumor diameters were measured transcutaneously using calipers and tumor volumes were calculated using the formula V=(π/6)hd^2. T-test comparisons of the tumor volumes and final weights at harvest were performed. Xenotrials with patient-derived xenografts (PTX) were performed on nu/nu mice implanted subcutaneously with a piece of Passage 2 tumor measuring 2-5 mm^3 each. When a small palpable tumor was evident at 7-10 days, the mice with tumor take were randomized and subjected to subcutaneous injection of vehicle or AOAA (9 mg/kg/day) 6 days/week. Specimens were fixed with 10% formalin and embedded in paraffin. 5 μm sections were stained with hematoxylin and eosin. Each in vivo experiment was repeated at least twice.

HCT116 tumor xenografts = test: HCT116 tumor xenograft in nude mice; type: in vivo, Nu/nu Balb/C female mice; conditions: AOAA 9 mg/kg/day s.c.
Experimental: as §1
Tissue preparation, immunostaining of CD31, and evaluation of microvessel density with the Chakley reticle was performed as described (Chao et al. (1996) Cancer Res. 56:4811-19).
Nu/nu Balb/c female mice (8-10 weeks) were injected subcutaneously in the right and left dorsum (10^6 cells/side with HCT116 cells). One week later, the mice were randomized and subcutaneous injection of phosphate buffered saline (PBS control) or YD2-51 (0.1, 0.5 or 1 mg/kg) was performed 6 days/week. Tumor volumes and final weights at harvest (post-tumor injection Day 28) were performed and tumor weight/animal weight ratios calculated.

HCT116 colon cancer cell = HCT116 colon cancer cell proliferation (xCELLigence); type: cell-based, human; conditions: AOAA 1 mM; 36 hours

SMILES: NOCC(=O)O [AOAA, aminooxyacetic acid]
- H2S-producing activity of CBS in tissue extracts (CBS): blocked the H2S-producing activity
- PDTX growth, second patient with stage II disease and mutant Kras allele [1]: growth inhibitory effects
- rate of PDTX growth, patient with stage III disease and Kras mutation [1]: reduced rate
- rate of HCT116 xenograft growth (HCT116 tumor xenografts; 6 days/week): significantly slowed
- tumor size and weight at harvest (HCT116 tumor xenografts; 6 days/week): reduced size and weight
- plasma concentration of H2S (HCT116 tumor xenografts; tumor-bearing mice): reduction
- HCT116 cell proliferation (HCT116 colon cancer cell): markedly reduced
